Measurements published in PubChem BioAssay (NCI).
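These data come from cells grown in 96-well plates and exposed to compound for 48 hours at five concentrations. GI50: concentration for 50% inhibition of growth. At the TGI there is no net growth.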

Assays:
Test in all cases: NCI-60 cell line screen, 48 h
[1] = test system: HCT-15 colon
[2] = test system: HL-60(TB) leukemia
[3] = test system: HOP-18 NSCLC
[4] = test system: HOP-92 NSCLC
[5] = test system: MALME-3M melanoma
[6] = test system: NCI-H226 lung
[7] = test system: SF-295 CNS
[8] = test system: SNB-78 CNS
[9] = test system: SW-620 colon
[10] = test system: UACC-62 melanoma

Row | Structure (SMILES) | GI50 [1] | TGI [1] | GI50 [2] | TGI [2] | GI50 [3] | TGI [3] | GI50 [4] | TGI [4] | GI50 [5] | TGI [5] | GI50 [6] | TGI [6] | GI50 [7] | TGI [7] | GI50 [8] | TGI [8] | GI50 [9] | TGI [9] | GI50 [10] | TGI [10]
1 | N.N.NC(CS)C(=O)[O-].NC(CS)C(=O)[O-].[Pt+4] (stereo not drawn) | > 50 µM | > 50 µM | > 50 µM | > 50 µM | > 50 µM | > 50 µM | > 50 µM | > 50 µM | > 50 µM | > 50 µM | > 50 µM | > 50 µM | > 50 µM | > 50 µM | > 50 µM | > 50 µM | > 50 µM | > 50 µM | > 50 µM | > 50 µM
2 | Cc1[nH]c(/C=C2\C(=O)Nc3ccc(F)cc32)c(C)c1C(=O)NC[C@H](O)CN1CCOCC1 | 2.83 µM | > 10 µM | 1.03 µM | 5.43 µM | – | – | 1.17 µM | 6.84 µM | 4.21 µM | > 10 µM | 2.33 µM | > 10 µM | > 10 µM | > 10 µM | – | – | 2.3 µM | > 10 µM | 3.55 µM | > 10 µM
3 | COc1nc(C)cc2c(=O)n(-c3ccccc3)n(CCCN3CCN(c4ccc(Cl)cc4)CC3)c(=O)c12 | > 50 µM | > 50 µM | > 50 µM | > 50 µM | – | – | 10 µM | 41.6 µM | > 50 µM | > 50 µM | > 50 µM | > 50 µM | 29.2 µM | > 50 µM | – | – | 43.8 µM | > 50 µM | 39.9 µM | > 50 µM
4 | C[N+](C)(CCCCCC[N+](C)(C)CCCN1C(=O)c2cc3ccccc3cc2C1=O)CCCN1C(=O)c2ccccc2C1=O | > 37.5 µM | > 37.5 µM | > 37.5 µM | > 37.5 µM | – | – | > 37.5 µM | > 37.5 µM | > 37.5 µM | > 37.5 µM | > 37.5 µM | > 37.5 µM | > 37.5 µM | > 37.5 µM | – | – | > 37.5 µM | > 37.5 µM | > 37.5 µM | > 37.5 µM
5 | CC(C)(O)C1OCC(C2CCC3(C)C4=CCC5C(C)(C)C(O)CCC5(C)C4CCC23C)CC1O (stereo not drawn) | – | 28 µM | – | > 100 µM | – | – | – | 27.6 µM | – | 39.5 µM | – | 27.9 µM | – | 26.8 µM | – | – | – | 28.5 µM | – | 29.5 µM
6 | CN(c1ccccc1)C(c1ccccc1)C(O)c1ccccc1 (stereo not drawn) | – | 40.3 µM | – | 37.7 µM | – | 33.2 µM | – | 47.8 µM | – | 31.4 µM | – | – | – | 32 µM | – | 59.6 µM | – | 33.2 µM | – | 38.1 µM
7 | COc1cc2c(/C=C3/C(=O)Nc4ccccc43)c(Cl)n(Cc3ccccc3[N+](=O)[O-])c2cc1C | 6.6 µM | 26.7 µM | 4.78 µM | > 100 µM | – | – | 7.25 µM | 26.8 µM | 3.41 µM | 13.8 µM | 12.7 µM | 38.4 µM | 6.9 µM | 22.8 µM | – | – | 7.91 µM | 34.5 µM | 6.69 µM | 27 µM
8 | O=C1OC(=O)C2C1C1(c3ccccc3)C(c3ccccc3)=C(c3ccccc3)C2(c2ccccc2)S1=O (stereo not drawn) | > 100 µM | > 100 µM | > 100 µM | > 100 µM | – | – | > 100 µM | > 100 µM | > 100 µM | > 100 µM | > 100 µM | > 100 µM | > 100 µM | > 100 µM | – | – | > 100 µM | > 100 µM | 49.4 µM | > 100 µM
9 | Cc1ccc2c(N)c(C(=O)N[C@H]3CCc4cc(N5CC6CCC(C5)N6)ccc4C3)sc2n1 | 0.34 µM | 2.36 µM | 0.172 µM | 1.31 µM | – | – | 0.642 µM | 4.08 µM | 0.441 µM | 2.04 µM | 0.452 µM | 2.58 µM | 0.509 µM | 2.59 µM | – | – | 0.293 µM | 2.13 µM | 0.709 µM | 3.11 µM
10 | Cc1cc2c(F)c(Oc3ncnn4cc(OC[C@@H](C)OC(=O)[C@H](C)N)c(C)c34)ccc2[nH]1 | 0.882 µM | 14 µM | 7.2 µM | 26.3 µM | – | – | 16.6 µM | 33.5 µM | 11.7 µM | 24.9 µM | 7.75 µM | 24.8 µM | 7.87 µM | 21.3 µM | – | – | 6.33 µM | 19.7 µM | 8.67 µM | 21.9 µM
11 | COC(=O)c1ccc(N=NN(C)CO)cc1 | – | > 100 µM | – | > 100 µM | – | – | – | – | – | > 100 µM | – | > 100 µM | – | > 100 µM | – | > 100 µM | – | > 100 µM | – | > 100 µM
12 | COc1c(O)ccc2c1CN1CCc3cc4c(cc3C1C2)OCO4 (stereo not drawn) | – | > 100 µM | – | > 100 µM | – | – | – | > 100 µM | – | > 100 µM | – | > 100 µM | – | > 96.6 µM | – | – | – | > 100 µM | – | > 100 µM
13 | C[C@]12CC[C@@H]3c4ccc(O)cc4CC[C@H]3[C@@H]1CC[C@@H]2NS(=O)(=O)Cc1ccc(Cl)cc1 | 2.33 µM | 7.76 µM | 3.26 µM | 14.5 µM | – | – | 2.13 µM | 7.24 µM | 2.85 µM | 9.95 µM | 3.19 µM | 12.6 µM | 1.72 µM | 3.56 µM | – | – | 3.5 µM | 17.3 µM | 1.92 µM | 4.56 µM
14 | CC(NNC(=S)N1CCCCCC1)c1ccc2ccccc2n1 (stereo not drawn) | 1.06 µM | 51.6 µM | 0.363 µM | 12.1 µM | – | – | 0.769 µM | 34.3 µM | 3.15 µM | 37.8 µM | 2.74 µM | 23.2 µM | 0.843 µM | 13.2 µM | – | – | 3.23 µM | 33.2 µM | 1.69 µM | 11.5 µM
15 | CCOC(=O)C(=O)Nc1c(N(CC)CC)n2ccccc2nc1=O | – | > 100 µM | – | – | – | – | – | > 100 µM | – | > 100 µM | – | > 100 µM | – | – | – | > 100 µM | – | > 100 µM | – | > 100 µM
16 | CC(C)(C)[C@H]1CO[C@]2(C)[C@@H]3C[C@@H]3C(=O)N12 | – | > 100 µM | – | > 100 µM | – | – | – | > 100 µM | – | > 100 µM | – | > 100 µM | – | > 100 µM | – | > 100 µM | – | > 100 µM | – | > 100 µM
